The values that follow come from patent US20080017207A1, “Reduction of the Deleterious Effects of Tobacco Smoking by the Induction of Phase 2 Enzymes by Nerf2” (SAVIPU PHARMACEUTICALS, priority 2006, published 2008).

A word on the inhibition: it is how much of the control response was suppressed.

Data set [1] deals with benzo[a]pyrene-induced gastric neoplasia. The note with it: cited from earlier work.
The subject of data set [2] is NF-κB. The following applies: as disclosed in U.S. Application Ser. No. 60/779,142; cited from earlier work.
Data set [3] relates to RTE cells. Description: toxicity of tanshinone IIA to RTE cells. The data set is classed as cell-based, rat. As for the experimental part: (§1) The rat tracheal epithelial (RTE) cell focus inhibition assay was used to identify potential chemopreventive activity of tanshinone IIA. Tanshinone IIA was evaluated for its ability to inhibit benzo[a]pyrene-induced transformation of RTE cells. Tracheal epithelial cells were isolated from 8-12 week-old male Fisher 344 rats and plated on collagen coated dishes. Initially, a nontoxic concentration of tanshinone IIA was determined by treating RTE cells with a range of 1.5 nM to 3000 nM of tanshinone IIA. […] About 10% cells survived at a concentration of 1500 nM. Freshly isolated RTE cells were exposed to benzo[a]pyrene alone or in combination with tanshinone IIA. Benzo[a]pyrene was washed out after an exposure of 24 h. The maximal non-toxic concentration and four half log concentrations of tanshinone IIA (300 nM to 3 nM) were used for the chemopreventive assay. After 30 days in culture, transformed foci were scored and inhibition was quantitated. […] A positive control of retinoic acid inhibited the transformation frequency by 50% at 1 nM.

The subject of data set [4] is benzo[a]pyrene-induced transformation of RTE cells. Briefly: rat tracheal epithelial (RTE) cell focus inhibition assay. Type of data set: cell-based. On the procedure:
as §1

As to `Cc1c(-c2cnccn2)ssc1=S` [Oltipraz, 4-methyl-5-[2-pyrazinyl]-1,2-dithiole-3-thione], the tumor burden entry in data set [1] (nrf2-deficient mice) is reported as “no effect”. Moreover, in data set [1] (wild-type mice), the “multiplicity of gastric neoplasia” value was “significantly reduced”.

On to `Cc1coc2c1C(=O)C(=O)c1c-2ccc2c1CCCC2(C)C` [Tanshinone IIA], for which, in data set [2], the “inhibition of NF-κB” value was “demonstrated inhibition”. Further, the cells survived result in data set [3] (at 1500 nM) is “About 10%”. Besides, the nontoxic concentration in data set [3] (range tested 1.5 nM to 3000 nM) is given as not above 150 nM. Further, in data set [3] (very low concentrations (3 nM)), the “toxicity to the cells” value was “nontoxic”. Further, the “prevention of benzo[a]pyrene-induced transformation of rat tracheal epithelial cells” value in data set [4] (3 nM) is given as “totally prevented”. For the same compound, the “inhibition of transformation frequency” value in data set [4] (each dose level, 300 nM to 3 nM, foci scored after 30 days in culture) is recorded as “complete inhibition”.

Turning to `CC1=C(/C=C/C(C)=C/C=C/C(C)=C/C(=O)O)C(C)(C)CCC1` [retinoic acid, reference compound], the inhibition at 0.001 µM in data set [4] (Rattus norvegicus, at 1 nM, positive control, read-out: inhibition of transformation frequency) worked out at 50%.
